Assay results published in patent US4330529A, “Antibacterial composition” (Fujisawa Pharmaceutical Co., Ltd., priority 1979, dated 1982).
Read-outs that look alike come from different tables or passages of the source.

Assays:
[1] = tested on: Pseudomonas aeruginosa 1101-63; assay: microbe, parasite or virus in culture; assay type: cell-based; conditions: for FIC: in 1:1 mixture C
Protocol: (§1) Further, in order to observe the degree of synergistic antimicrobial activity, Fractional Inhibitory Concentration (FIC) values and FIC Index were calculated from the determined MIC values according to the following calculation method, respectively.
(§2) In the case that the combination ratio of a mixture of monosodium salt of 3-(N-acetyl-N-hydroxyamino)propylphosphonic acid and monosodium salt of nocardicin A is m:n (by weight), each of FIC values and FIC indexes was calculated according to the following equations. [formula]

[2] = tested on: Serratia marcescens 1421-1; assay: microbe, parasite or virus in culture; assay type: cell-based; conditions: for FIC: in 1:1 mixture C
Protocol: as §1, §2

[3] = tested on: Serratia marcescens 1421-3; assay: microbe, parasite or virus in culture; assay type: cell-based; conditions: for FIC: in 1:1 mixture C
Protocol: as §1, §2

[4] = tested on: Klebsiella pneumoniae 1391-1; assay: microbe, parasite or virus in culture; assay type: cell-based; conditions: for FIC: in 1:1 mixture C
Protocol: as §1, §2

[5] = tested on: Serratia marcescens 1421-4; assay: microbe, parasite or virus in culture; assay type: cell-based; conditions: for FIC: in 1:1 mixture C
Protocol: as §1, §2

[6] = tested on: Pseudomonas aeruginosa 1101-5; assay type: in vivo, mice (ICR-strain male); conditions: P. aeruginosa 1101-5; for FIC: in 1:1 mixture C, from ED50; for ED50: s.c. 1 h after i.p. inoculation, survival at one week
Protocol: (§3) ICR-strain male mice weighing 23-25 g (10 mice per one group) were used. A prescribed amount of the pathogenic bacteria suspended in 5% aqueous mucin suspension (0.5 ml.) was inoculated intraperitoneally into each mouse. One hour after the inoculation, the antibiotics as mentioned in the following table were administered subcutaneously, and then survival of the test mice was measured one week after the infection to determine ED50 value.
(§4) Incidentally, FIC values and FIC index in this in vivo test also calculated from the determined ED50 values according to the following calculation method.
(§5) On the basis of the fact that the combination ratio of a mixture of monosodium salt of 3-(N-acetyl-N- hydroxyamino)propylphosphonic acid and monosodium salt of nocardicin A is 1:1 (by weight), each of FIC values and FIC index was calculated according to the following equations.
(§6) FIC of monosodium salt of 3-(N-acetyl-N-hydroxyamino)propylphosphonic acid=1/2 C'ab/A'o
(§7) FIC of monosodium salt of nocardicin A=1/2 C'ab/B'o
(§8) FIC index=1/2 C'ab/A'o+1/2 C'ab/B'o

[7] = tested on: Pseudomonas aeruginosa 1101-7; assay type: in vivo, mice (ICR-strain male); conditions: P. aeruginosa 1101-7; for FIC: in 1:1 mixture C, from ED50; for ED50: s.c. 1 h after i.p. inoculation, survival at one week
Protocol: as §3, §4, §5, §6, §7, §8

[8] = tested on: Klebsiella pneumoniae 1391-2; assay: MIC and FIC, Nutrient broth (Test 1); assay type: cell-based; conditions: for FIC: in 1:1 mixture C
Protocol: as §1, §2

[9] = tested on: Pseudomonas aeruginosa 1101-68; assay: MIC and FIC, Nutrient broth (Test 1); assay type: cell-based; conditions: for FIC: in 1:1 mixture C
Protocol: as §1, §2

[10] = tested on: Pseudomonas aeruginosa 1101-66; assay: MIC and FIC, Nutrient broth (Test 1); assay type: cell-based; conditions: for FIC: in 1:1 mixture C
Protocol: as §1, §2

[11] = tested on: Klebsiella pneumoniae 1391-3; assay: MIC and FIC, Nutrient broth (Test 1); assay type: cell-based; conditions: for FIC: in 1:1 mixture C
Protocol: as §1, §2

[12] = tested on: Pseudomonas aeruginosa 1101-64; assay: MIC and FIC, Nutrient broth (Test 1); assay type: cell-based; conditions: for FIC: in 1:1 mixture C
Protocol: as §1, §2

[13] = tested on: Pseudomonas aeruginosa 1101-67; assay: MIC and FIC, Nutrient broth (Test 1); assay type: cell-based; conditions: for FIC: in 1:1 mixture C
Protocol: as §1, §2

Escherichia coli 1341-35 = assay: MIC and FIC, Nutrient broth (Test 1); assay type: cell-based; conditions: for FIC: in 1:1 mixture C
Protocol: as §1, §2

[14] = tested on: Serratia marcescens 1421-5; assay: MIC and FIC, Nutrient broth (Test 1); assay type: cell-based; conditions: for FIC: in 1:1 mixture C
Protocol: as §1, §2

[15] = tested on: Klebsiella pneumoniae 1391-5; assay: MIC and FIC, Nutrient broth (Test 1); assay type: cell-based; conditions: for FIC: in 1:1 mixture C
Protocol: as §1, §2

Escherichia coli 1341-27 = assay: MIC and FIC, Nutrient broth (Test 1); assay type: cell-based; conditions: for FIC: in 1:1 mixture C
Protocol: as §1, §2

[16] = tested on: Salmonella typhimurium 1406; assay: MIC and FIC, Nutrient agar (Tests 2, 3); assay type: cell-based; conditions: Salmonella enterica, 20 h
[17] = tested on: Klebsiella pneumoniae NCTC 418; assay: MIC and FIC, Nutrient agar (Tests 2, 3); assay type: cell-based; conditions: NCTC418, K. pneumoniae NCTC 418, 20 h
Protocol: (§9) After the incubation was carried out at 37° C. for 20 hours, MIC values were determined.

[18] = tested on: Proteus mirabilis 1432-75; assay: MIC and FIC, Nutrient agar (Tests 2, 3); assay type: cell-based
[19] = tested on: Serratia marcescens 1421-4; assay: MIC and FIC, Nutrient agar (Tests 2, 3); assay type: cell-based; conditions: Serratia marcescens, 14214, 20 h
[20] = tested on: Proteus vulgaris IAM-1025; assay: MIC and FIC, Nutrient agar (Test 2); assay type: cell-based; conditions: IAM1025, P. vulgaris IAM-1025, 20 h
Protocol: as §9
(§10) FIC values and FIC Index were calculated in substantially the same manner as described in Test 1.

[21] = tested on: Salmonella paratyphi A-1015; assay: MIC and FIC, Nutrient agar (Test 2); assay type: cell-based; conditions: Salmonella enterica; S. paratyphi A-1015; 20 h
Protocol: as §9, §10

[22] = tested on: Alcaligenes faecalis 1311-1; assay: MIC and FIC, Nutrient agar (Test 2); assay type: cell-based; conditions: 13111, A. faecalis 1311-1, 20 h
Protocol: as §9, §10

[23] = tested on: Shigella flexneri Ia EW-8; assay: MIC and FIC, Nutrient agar (Test 2); assay type: cell-based; conditions: IAEW8, S. flexneri Ia EW-8, 20 h
Protocol: as §9

[24] = tested on: Enterobacter cloacae 1401-4; assay: MIC and FIC, Nutrient agar (Tests 2, 3); assay type: cell-based; conditions: Enterobacter cloacae, 14014, 20 h, E. cloacae 1401-4
[25] = tested on: Staphylococcus epidermidis 1601-1; assay: MIC and FIC, Nutrient agar (Tests 2, 3); assay type: cell-based; conditions: 16011, S. epidermidis 1601-1, 20 h
Protocol: as §9

Proteus morganii 1433-2 = assay: MIC and FIC, Nutrient agar (Tests 2, 3); assay type: cell-based; conditions: Morganella morganii, 14332; P. morganii 1433-2; 20 h
Protocol: as §9

[26] = tested on: Salmonella enteritidis 1891; assay: MIC and FIC, Nutrient agar (Test 2); assay type: cell-based; conditions: Salmonella enterica; S. enteritidis 1891; 20 h
Protocol: as §9

[27] = tested on: Enterobacter aerogenes 1402-10; assay: MIC and FIC, Nutrient agar (Tests 2, 3); assay type: cell-based; conditions: Klebsiella aerogenes, 140210; E. aerogenes 1402-10; 20 h; read-out: MIC

## CC(=O)N(O)CCCP(=O)(O)O [A (Table 1), 3-(N-acetyl-N-hydroxyamino)propylphosphonic acid]
[1]; P. aeruginosa 1101-63
  FIC: 0.063
[1]; Pseudomonas aeruginosa, 110163, 20 h
  MIC: 800 µg/mL
[2]; S. marcescens 1421-1
  FIC: < 0.008
[2]; Serratia marcescens, 14211, 20 h
  MIC: > 800 µg/mL
[3]; S. marcescens 1421-3
  FIC: < 0.063
[3]; Serratia marcescens, 14213, 20 h
  MIC: > 800 µg/mL
[4]; K. pneumoniae 1391-1
  FIC: 0.125
[4]; Klebsiella pneumoniae, 13911, 20 h
  MIC: 400 µg/mL
[5]; S. marcescens 1421-4
  FIC: < 0.031
[5]; Serratia marcescens, 14214, 20 h
  MIC: > 800 µg/mL
[6]
  FIC: < 0.018
  ED50: > 20 mg/mouse
[7]
  FIC: < 0.063
  ED50: > 20 mg/mouse
[8]; K. pneumoniae 1391-2
  FIC: < 0.250
[8]; Klebsiella pneumoniae, 13912, 20 h
  MIC: > 800 µg/mL
[9]; P. aeruginosa 1101-68
  FIC: 0.031
[9]; Pseudomonas aeruginosa, 110168, 20 h
  MIC: 800 µg/mL
[10]; P. aeruginosa 1101-66
  FIC: 0.125
[10]; Pseudomonas aeruginosa, 110166, 20 h
  MIC: 200 µg/mL
[11]; K. pneumoniae 1391-3
  FIC: 0.250
[11]; Klebsiella pneumoniae, 13913, 20 h
  MIC: 800 µg/mL
[12]; P. aeruginosa 1101-64
  FIC: < 0.031
[12]; Pseudomonas aeruginosa, 110164, 20 h
  MIC: > 800 µg/mL
[13]; P. aeruginosa 1101-67
  FIC: 0.250
[13]; Pseudomonas aeruginosa, 110167, 20 h
  MIC: 200 µg/mL
Escherichia coli 1341-35; E. coli 1341-35
  FIC: 0.250
Escherichia coli 1341-35; Escherichia coli, 134135, 20 h
  MIC: 100 µg/mL
[14]; S. marcescens 1421-5
  FIC: < 0.016
[14]; Serratia marcescens, 14215, 20 h
  MIC: > 800 µg/mL
[15]; K. pneumoniae 1391-5
  FIC: 0.250
[15]; Klebsiella pneumoniae, 13915, 20 h
  MIC: 400 µg/mL
Escherichia coli 1341-27; E. coli 1341-27
  FIC: 0.125
Escherichia coli 1341-27; Escherichia coli, 134127, 20 h
  MIC: 200 µg/mL

## N[C@H](CCOc1ccc(/C(=N/O)C(=O)N[C@H]2CN([C@@H](C(=O)O)c3ccc(O)cc3)C2=O)cc1)C(=O)O [B (Table 1), nocardicin A]
[1]; P. aeruginosa 1101-63
  FIC: 0.125
[1]; Pseudomonas aeruginosa, 110163, P. aeruginosa 1101-63, 20 h, read-out: MIC
  MIC: 400 µg/mL
[2]; S. marcescens 1421-1
  FIC: 0.063
[2]; Serratia marcescens, 14211, S. marcescens 1421-1, 20 h, read-out: MIC
  MIC: 100 µg/mL
[3]; S. marcescens 1421-3
  FIC: 0.125
[3]; Serratia marcescens, 14213, S. marcescens 1421-3, 20 h, read-out: MIC
  MIC: 400 µg/mL
[4]; K. pneumoniae 1391-1
  FIC: 0.063
[4]; Klebsiella pneumoniae, 13911, K. pneumoniae 1391-1, 20 h, read-out: MIC
  MIC: 800 µg/mL
[5]; S. marcescens 1421-4
  FIC: 0.063
[5]; Serratia marcescens, 14214, S. marcescens 1421-4, broth, 20 h, read-out: MIC
  MIC: 400 µg/mL
[16]; S. typhimurium 1406, read-out: MIC
  MIC: 25 µg/mL
[6]
  FIC: 0.273
  ED50: 1.3 mg/mouse
[7]
  FIC: 0.083
  ED50: 15.0 mg/mouse
[8]; K. pneumoniae 1391-2
  FIC: 0.250
[8]; Klebsiella pneumoniae, 13912, K. pneumoniae 1391-2, 20 h, read-out: MIC
  MIC: 800 µg/mL
[9]; P. aeruginosa 1101-68
  FIC: 0.250
[9]; Pseudomonas aeruginosa, 110168, P. aeruginosa 1101-68, 20 h, read-out: MIC
  MIC: 100 µg/mL
[10]; P. aeruginosa 1101-66
  FIC: 0.250
[10]; Pseudomonas aeruginosa, 110166, P. aeruginosa 1101-66, 20 h, read-out: MIC
  MIC: 100 µg/mL
[11]; K. pneumoniae 1391-3
  FIC: 0.250
[11]; Klebsiella pneumoniae, 13913, K. pneumoniae 1391-3, 20 h, read-out: MIC
  MIC: 800 µg/mL
[12]; P. aeruginosa 1101-64
  FIC: 0.125
[12]; Pseudomonas aeruginosa, 110164, P. aeruginosa 1101-64, 20 h, read-out: MIC
  MIC: 200 µg/mL
[13]; P. aeruginosa 1101-67
  FIC: 0.250
[13]; Pseudomonas aeruginosa, 110167, P. aeruginosa 1101-67, 20 h, read-out: MIC
  MIC: 200 µg/mL
Escherichia coli 1341-35; E. coli 1341-35
  FIC: 0.250
Escherichia coli 1341-35; Escherichia coli, 134135, E. coli 1341-35, 20 h, read-out: MIC
  MIC: 100 µg/mL
[14]; S. marcescens 1421-5
  FIC: 0.063
[14]; Serratia marcescens, 14215, S. marcescens 1421-5, 20 h, read-out: MIC
  MIC: 200 µg/mL
[15]; K. pneumoniae 1391-5
  FIC: 0.125
[15]; Klebsiella pneumoniae, 13915, K. pneumoniae 1391-5, 20 h, read-out: MIC
  MIC: 800 µg/mL
Escherichia coli 1341-27; E. coli 1341-27
  FIC: 0.250
Escherichia coli 1341-27; Escherichia coli, 134127, E. coli 1341-27, 20 h, read-out: MIC
  MIC: 100 µg/mL
[17]
  MIC: 200 µg/mL
[18]; Proteus mirabilis, 143275, 20 h
  MIC: 3.13 µg/mL
[19]
  MIC: 25 µg/mL

## CC1(C)S[C@@H]2[C@H](NC(=O)[C@H](N)c3ccccc3)C(=O)N2[C@H]1C(=O)O [B (Table 2), ampicillin]
[20]
  MIC: 0.78 µg/mL
[21]
  MIC: 0.39 µg/mL
[22]
  MIC: 6.25 µg/mL
[16]; TYPHIMURIUM
  MIC: 0.39 µg/mL
[23]
  MIC: 0.78 µg/mL
[24]
  MIC: 100 µg/mL
[17]
  MIC: 12.5 µg/mL
[18]; Proteus mirabilis, 143275, P. mirabilis 1432-75, 20 h, read-out: MIC
  MIC: 0.39 µg/mL
[25]
  MIC: 0.2 µg/mL
Proteus morganii 1433-2
  MIC: 25 µg/mL
[26]
  MIC: 0.39 µg/mL
[27]
  MIC: 200 µg/mL
[19]
  MIC: 25 µg/mL
